Measurements taken from ChEMBL document CHEMBL4507260 (2021).

Assays:
Settings in all cases: Compound concentration 1000.0 nM
[1] = target: Mitogen-activated protein kinase kinase kinase 3 (Homo sapiens) (UniProt Q99759)
[2] = target: Tyrosine-protein kinase Fgr (Homo sapiens) (UniProt P09769)
[3] = test system: Tyrosine-protein kinase ABL1 (Homo sapiens), P00519 [F317L]
[4] = target: Uncharacterized serine/threonine-protein kinase SBK3 (Homo sapiens) (UniProt P0C264)
[5] = test system: Epidermal growth factor receptor (Homo sapiens), P00533 [UNDEFINED MUTATION]
[6] = target: Serine/threonine-protein kinase 17B (Homo sapiens) (UniProt O94768)
[7] = target: Ribosomal protein S6 kinase alpha-5 (Homo sapiens) (UniProt O75582)
[8] = target: Beta-adrenergic receptor kinase 1 (Homo sapiens) (UniProt P25098)
[9] = target: Cyclin-G-associated kinase (Homo sapiens) (UniProt O14976)
[10] = test system: Mast/stem cell growth factor receptor Kit (Homo sapiens), P10721 [V559D,V654A]
[11] = target: Aurora kinase A (Homo sapiens) (UniProt O14965)
[12] = target: STE20-like serine/threonine-protein kinase (Homo sapiens) (UniProt Q9H2G2)
[13] = target: Dual specificity protein kinase TTK (Homo sapiens) (UniProt P33981)
[14] = target: Serine/threonine-protein kinase SIK1 (Homo sapiens) (UniProt P57059)
Serine/threonine-protein kinase SIK1 (Homo sapiens), sequence (P57059 whole entry): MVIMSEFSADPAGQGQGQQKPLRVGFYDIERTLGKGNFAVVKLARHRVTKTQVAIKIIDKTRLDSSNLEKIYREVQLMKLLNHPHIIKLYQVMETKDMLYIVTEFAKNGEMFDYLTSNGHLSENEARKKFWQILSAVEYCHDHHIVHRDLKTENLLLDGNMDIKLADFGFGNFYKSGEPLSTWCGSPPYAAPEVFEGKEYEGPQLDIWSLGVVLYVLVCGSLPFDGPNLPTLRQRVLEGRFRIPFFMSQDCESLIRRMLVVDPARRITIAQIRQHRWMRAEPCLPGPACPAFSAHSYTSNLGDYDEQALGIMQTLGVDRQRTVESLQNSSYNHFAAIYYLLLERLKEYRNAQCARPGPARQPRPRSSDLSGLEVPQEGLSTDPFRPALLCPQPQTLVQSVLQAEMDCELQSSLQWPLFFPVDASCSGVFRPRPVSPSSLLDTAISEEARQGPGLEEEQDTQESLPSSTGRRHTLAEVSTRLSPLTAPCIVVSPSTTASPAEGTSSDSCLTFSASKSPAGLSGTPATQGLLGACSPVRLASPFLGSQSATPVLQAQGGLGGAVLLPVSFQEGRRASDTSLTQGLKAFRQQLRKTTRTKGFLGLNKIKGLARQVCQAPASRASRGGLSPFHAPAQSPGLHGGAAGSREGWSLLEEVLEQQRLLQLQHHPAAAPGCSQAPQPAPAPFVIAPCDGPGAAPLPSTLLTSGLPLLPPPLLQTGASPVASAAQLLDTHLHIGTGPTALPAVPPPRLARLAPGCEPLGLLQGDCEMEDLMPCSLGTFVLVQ

[15] = target: Serine/threonine-protein kinase ULK1 (Homo sapiens) (UniProt O75385)
[16] = target: Megakaryocyte-associated tyrosine-protein kinase (Homo sapiens) (UniProt P42679)
[17] = target: Mitogen-activated protein kinase kinase kinase 12 (Homo sapiens) (UniProt Q12852)
[18] = target: Tyrosine-protein kinase ABL1 (Homo sapiens) (UniProt P00519)
[19] = target: Fibroblast growth factor receptor 2 (Homo sapiens) (UniProt P21802)
[20] = target: Fibroblast growth factor receptor 1 (Homo sapiens) (UniProt P11362)
[21] = target: Fibroblast growth factor receptor 3 (Homo sapiens) (UniProt P22607)
[22] = test system: Mast/stem cell growth factor receptor Kit (Homo sapiens), P10721 [V559D,T670I]
[23] = test system: Epidermal growth factor receptor (Homo sapiens), P00533 [L858R]
[24] = target: Cyclin-dependent kinase 4 (Homo sapiens) (UniProt P11802)
Cyclin-dependent kinase 4 (Homo sapiens), sequence (P11802 whole entry, canonical isoform): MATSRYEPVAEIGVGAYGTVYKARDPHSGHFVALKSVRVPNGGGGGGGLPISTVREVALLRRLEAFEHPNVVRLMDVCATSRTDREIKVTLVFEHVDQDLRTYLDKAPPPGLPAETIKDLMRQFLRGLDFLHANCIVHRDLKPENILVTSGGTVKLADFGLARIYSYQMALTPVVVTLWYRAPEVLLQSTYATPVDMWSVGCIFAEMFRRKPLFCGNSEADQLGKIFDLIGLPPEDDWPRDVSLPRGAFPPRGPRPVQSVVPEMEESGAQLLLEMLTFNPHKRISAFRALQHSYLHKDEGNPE

[25] = test system: Phosphatidylinositol 4,5-bisphosphate 3-kinase catalytic subunit alpha isoform (Homo sapiens), P42336 [E542K]
[26] = target: Cyclin-dependent kinase 2 (Homo sapiens) (UniProt P24941)
[27] = target: Phosphatidylinositol 4,5-bisphosphate 3-kinase catalytic subunit gamma isoform (Homo sapiens) (UniProt P48736)
[28] = target: Serine/threonine-protein kinase MAK (Homo sapiens) (UniProt P20794)
[29] = target: Ribosomal protein S6 kinase alpha-4 (Homo sapiens) (UniProt O75676)
[30] = target: Tyrosine-protein kinase CSK (Homo sapiens) (UniProt P41240)
[31] = target: Dual specificity mitogen-activated protein kinase kinase 3 (Homo sapiens) (UniProt P46734)
[32] = target: Serine/threonine-protein kinase Sgk3 (Homo sapiens) (UniProt Q96BR1)
[33] = target: Homeodomain-interacting protein kinase 2 (Homo sapiens) (UniProt Q9H2X6)
Homeodomain-interacting protein kinase 2 (Homo sapiens), sequence (Q9H2X6 whole entry, looked up): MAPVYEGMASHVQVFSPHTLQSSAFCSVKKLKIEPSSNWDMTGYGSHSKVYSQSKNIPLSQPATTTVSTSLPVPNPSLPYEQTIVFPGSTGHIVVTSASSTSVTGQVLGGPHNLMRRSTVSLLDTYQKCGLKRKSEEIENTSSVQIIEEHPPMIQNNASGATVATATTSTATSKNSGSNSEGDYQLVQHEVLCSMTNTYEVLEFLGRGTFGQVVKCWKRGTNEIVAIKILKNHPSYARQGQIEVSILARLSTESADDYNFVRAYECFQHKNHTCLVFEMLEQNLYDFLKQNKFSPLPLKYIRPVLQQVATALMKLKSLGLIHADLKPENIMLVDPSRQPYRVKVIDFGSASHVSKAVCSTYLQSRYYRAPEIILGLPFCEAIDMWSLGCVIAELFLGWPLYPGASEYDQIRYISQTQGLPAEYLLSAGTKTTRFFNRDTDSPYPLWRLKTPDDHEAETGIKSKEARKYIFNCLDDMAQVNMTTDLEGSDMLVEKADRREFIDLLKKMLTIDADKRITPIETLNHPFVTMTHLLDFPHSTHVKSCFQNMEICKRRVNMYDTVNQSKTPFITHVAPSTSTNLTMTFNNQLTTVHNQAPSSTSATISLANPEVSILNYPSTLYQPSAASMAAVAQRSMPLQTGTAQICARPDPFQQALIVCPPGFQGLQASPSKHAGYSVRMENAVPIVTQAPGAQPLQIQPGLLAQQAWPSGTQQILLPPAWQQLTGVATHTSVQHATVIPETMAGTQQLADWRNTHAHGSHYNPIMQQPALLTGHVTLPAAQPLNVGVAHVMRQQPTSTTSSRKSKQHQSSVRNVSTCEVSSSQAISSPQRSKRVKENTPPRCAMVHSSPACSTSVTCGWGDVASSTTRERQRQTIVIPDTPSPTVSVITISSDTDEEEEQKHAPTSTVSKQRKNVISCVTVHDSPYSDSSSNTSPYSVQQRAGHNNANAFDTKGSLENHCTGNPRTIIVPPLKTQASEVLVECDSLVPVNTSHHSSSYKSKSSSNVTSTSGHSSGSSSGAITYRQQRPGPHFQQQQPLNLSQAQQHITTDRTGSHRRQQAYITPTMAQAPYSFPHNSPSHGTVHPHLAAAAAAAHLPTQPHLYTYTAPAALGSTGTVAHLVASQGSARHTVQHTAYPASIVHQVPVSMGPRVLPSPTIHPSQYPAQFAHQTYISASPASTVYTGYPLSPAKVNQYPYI

[34] = target: 5'-AMP-activated protein kinase catalytic subunit alpha-1 (Homo sapiens) (UniProt Q13131)
[35] = target: Rho-associated protein kinase 1 (Homo sapiens) (UniProt Q13464)
[36] = target: Cyclin-dependent kinase 5 (Homo sapiens) (UniProt Q00535)
[37] = target: Serine/threonine-protein kinase PLK1 (Homo sapiens) (UniProt P53350)
Serine/threonine-protein kinase PLK1 (Homo sapiens), sequence (P53350 whole entry): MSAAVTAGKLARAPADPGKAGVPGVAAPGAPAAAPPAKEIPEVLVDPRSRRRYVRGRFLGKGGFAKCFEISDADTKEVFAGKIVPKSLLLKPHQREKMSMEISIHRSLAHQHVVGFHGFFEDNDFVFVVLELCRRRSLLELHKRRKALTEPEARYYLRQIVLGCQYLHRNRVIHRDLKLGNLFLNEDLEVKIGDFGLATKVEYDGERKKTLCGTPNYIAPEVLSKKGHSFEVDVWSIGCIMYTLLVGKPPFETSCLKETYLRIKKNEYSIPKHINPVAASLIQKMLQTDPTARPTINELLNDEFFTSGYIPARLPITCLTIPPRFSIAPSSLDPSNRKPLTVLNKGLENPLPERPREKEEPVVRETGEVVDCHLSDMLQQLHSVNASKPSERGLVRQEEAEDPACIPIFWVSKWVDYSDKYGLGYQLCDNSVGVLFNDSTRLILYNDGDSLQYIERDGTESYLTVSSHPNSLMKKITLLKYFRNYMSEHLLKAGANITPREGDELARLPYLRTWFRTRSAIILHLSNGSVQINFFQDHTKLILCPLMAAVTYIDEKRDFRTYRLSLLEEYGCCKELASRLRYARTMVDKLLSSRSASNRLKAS

[38] = target: Tyrosine-protein kinase BTK (Homo sapiens) (UniProt Q06187)
[39] = test system: Phosphatidylinositol 4,5-bisphosphate 3-kinase catalytic subunit alpha isoform (Homo sapiens), P42336 [H1047L]
[40] = target: Ankyrin repeat and protein kinase domain-containing protein 1 (Homo sapiens) (UniProt Q8NFD2)
[41] = target: Protein kinase C theta type (Homo sapiens) (UniProt Q04759)
[42] = target: Serine/threonine-protein kinase MRCK alpha (Homo sapiens) (UniProt Q5VT25)
[43] = target: cGMP-dependent protein kinase 1 (Homo sapiens) (UniProt Q13976)
cGMP-dependent protein kinase 1 (Homo sapiens), sequence (Q13976 whole entry): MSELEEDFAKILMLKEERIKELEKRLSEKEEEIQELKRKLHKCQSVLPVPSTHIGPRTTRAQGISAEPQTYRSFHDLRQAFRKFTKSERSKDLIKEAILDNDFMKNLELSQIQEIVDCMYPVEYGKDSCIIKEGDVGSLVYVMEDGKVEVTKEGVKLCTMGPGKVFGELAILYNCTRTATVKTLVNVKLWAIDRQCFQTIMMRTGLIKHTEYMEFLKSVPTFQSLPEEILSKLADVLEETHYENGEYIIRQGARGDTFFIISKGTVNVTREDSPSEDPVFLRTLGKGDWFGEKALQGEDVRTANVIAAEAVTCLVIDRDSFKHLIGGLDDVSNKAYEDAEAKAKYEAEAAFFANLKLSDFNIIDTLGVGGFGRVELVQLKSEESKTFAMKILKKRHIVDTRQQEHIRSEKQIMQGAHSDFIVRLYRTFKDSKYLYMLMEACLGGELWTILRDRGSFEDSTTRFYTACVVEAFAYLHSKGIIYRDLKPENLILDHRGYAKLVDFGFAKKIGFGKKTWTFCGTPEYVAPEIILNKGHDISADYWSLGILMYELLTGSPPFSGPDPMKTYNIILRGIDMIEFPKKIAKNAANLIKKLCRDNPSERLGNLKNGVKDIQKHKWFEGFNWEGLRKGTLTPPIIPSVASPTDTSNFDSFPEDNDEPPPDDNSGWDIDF

[44] = target: Serine/threonine-protein kinase WNK2 (Homo sapiens) (UniProt Q9Y3S1)
[45] = target: RAC-alpha serine/threonine-protein kinase (Homo sapiens) (UniProt P31749)
RAC-alpha serine/threonine-protein kinase (Homo sapiens), sequence (P31749 whole entry): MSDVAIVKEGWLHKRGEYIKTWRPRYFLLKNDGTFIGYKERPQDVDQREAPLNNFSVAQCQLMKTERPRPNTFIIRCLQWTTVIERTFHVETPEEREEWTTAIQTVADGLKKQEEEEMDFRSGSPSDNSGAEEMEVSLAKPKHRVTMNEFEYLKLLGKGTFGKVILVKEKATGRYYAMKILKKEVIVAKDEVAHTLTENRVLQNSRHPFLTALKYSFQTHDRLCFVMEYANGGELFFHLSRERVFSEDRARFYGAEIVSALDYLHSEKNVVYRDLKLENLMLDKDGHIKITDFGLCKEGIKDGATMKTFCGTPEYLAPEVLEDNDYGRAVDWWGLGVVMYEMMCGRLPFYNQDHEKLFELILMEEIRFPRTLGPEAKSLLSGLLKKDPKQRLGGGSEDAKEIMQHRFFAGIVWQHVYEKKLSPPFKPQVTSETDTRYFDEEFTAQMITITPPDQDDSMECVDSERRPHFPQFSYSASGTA

Measured: residual activity

Uncharacterized serine/threonine-protein kinase SBK3 (Homo sapiens), sequence (P0C264 whole entry): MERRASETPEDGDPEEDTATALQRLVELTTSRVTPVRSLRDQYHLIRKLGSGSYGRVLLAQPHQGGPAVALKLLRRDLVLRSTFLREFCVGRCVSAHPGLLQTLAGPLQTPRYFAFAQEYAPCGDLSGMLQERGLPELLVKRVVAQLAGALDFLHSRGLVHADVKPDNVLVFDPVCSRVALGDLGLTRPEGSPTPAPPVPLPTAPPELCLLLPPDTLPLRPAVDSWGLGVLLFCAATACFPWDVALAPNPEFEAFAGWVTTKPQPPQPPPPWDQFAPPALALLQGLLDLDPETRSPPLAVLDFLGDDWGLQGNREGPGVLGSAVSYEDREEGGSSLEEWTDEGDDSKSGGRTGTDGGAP
Mitogen-activated protein kinase kinase kinase 3 (Homo sapiens), sequence (Q99759 whole entry): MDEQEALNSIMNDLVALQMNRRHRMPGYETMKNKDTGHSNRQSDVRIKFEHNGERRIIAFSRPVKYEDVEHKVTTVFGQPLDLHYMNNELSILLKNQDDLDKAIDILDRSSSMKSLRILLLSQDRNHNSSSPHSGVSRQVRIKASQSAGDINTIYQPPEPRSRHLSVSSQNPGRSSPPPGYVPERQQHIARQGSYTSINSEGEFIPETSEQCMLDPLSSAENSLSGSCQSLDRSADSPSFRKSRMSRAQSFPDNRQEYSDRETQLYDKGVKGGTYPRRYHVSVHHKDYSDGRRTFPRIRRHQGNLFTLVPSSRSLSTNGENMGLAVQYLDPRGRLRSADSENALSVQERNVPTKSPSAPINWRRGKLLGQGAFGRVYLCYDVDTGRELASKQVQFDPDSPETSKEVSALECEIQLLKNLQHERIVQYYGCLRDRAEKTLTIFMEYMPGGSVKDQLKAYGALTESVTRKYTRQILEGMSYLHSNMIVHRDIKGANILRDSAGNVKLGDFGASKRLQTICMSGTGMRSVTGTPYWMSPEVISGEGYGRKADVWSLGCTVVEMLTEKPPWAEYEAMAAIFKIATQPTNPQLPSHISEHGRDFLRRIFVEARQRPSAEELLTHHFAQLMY

c1ccc(N2CCN(Cc3nc4ccccc4[nH]3)CC2)nc1 [ABT-724]
inactive: [1] 100% | [2] 100% | [3] 100% | [4] 100% | [5] 100% | [6] 100% | [7] 100% | [8] 90% | [9] 100% | [10] 100% | [11] 89% | [12] 93% | [13] 100% | [14] 100% | [15] 100% | [16] 100% | [17] 97% | [18] 80% | [19] 96% | [20] 100% | [21] 96% | [22] 95% | [23] 100% | [24] 100% | [25] 100% | [26] 100% | [27] 100% | [28] 100% | [29] 100% | [30] 100% | [31] 96% | [32] 100% | [34] 100% | [35] 100% | [36] 100% | [37] 100% | [38] 96% | [39] 100% | [40] 100% | [41] 98% | [42] 100% | [43] 100% | [44] 100% | [45] 90%
active: [33] 26%

CSc1cccnc1N1CCN(Cc2nc3ccccc3[nH]2)CC1 [A-769]
inactive: [1] 83% | [2] 100% | [3] 100% | [4] 100% | [5] 100% | [6] 100% | [7] 100% | [8] 93% | [9] 99% | [10] 100% | [11] 74% | [12] 100% | [13] 98% | [14] 100% | [15] 88% | [17] 74% | [18] 70% | [19] 100% | [20] 100% | [21] 100% | [22] 100% | [23] 100% | [24] 77% | [25] 82% | [26] 95% | [27] 64% | [28] 100% | [29] 94% | [30] 100% | [31] 100% | [32] 95% | [33] 62% | [34] 83% | [35] 93% | [36] 99% | [37] 78% | [38] 79% | [39] 87% | [40] 92% | [41] 100% | [42] 100% | [43] 100% | [44] 100% | [45] 100%
active: [16] 45%
